Tests used:
[1] = reported, see U.S. Pat. No. 8,293,737; cited from earlier work
[2] = Drying of Form B under vacuum at 40° C.; assay type: physicochemical
Protocol: A solid sample of Form B was dried in an attempt to dehydrate it. The sample was stored under vacuum (<5 mbar (e.g., about 4 mbar)) at 40° C. overnight or for 1 day.

[3] = Competitive slurry experiment, Form B versus anhydrous form; assay type: physicochemical
Source text: In some embodiments, it would be desirable to provide a crystalline polymorph of compound 1 that, as compared to the amorphous compound 1, imparts improved physical characteristics such as stability and/or ease of formulation. Accordingly, provided herein is a crystalline form (denoted Form B) of compound 1. Form B is a hemihydrate of compound 1. […] In some embodiments, Form B has a water content of about 2.0 wt %. […] In a competitive slurry experiment there was a tendency for the anhydrous form to convert to Form B.

[4] = Dynamic vapor sorption (DVS) measurement, hygroscopicity; assay type: physicochemical
Protocol: Projekt Messtechnik Sorptions Prüfsystem SPS 11-100n or Surface Measurement Systems DVS-1. The sample was placed on an aluminum or platinum holder on top of a microbalance and allowed to equilibrate for 2 h at 50% r.h. before starting one of two pre-defined humidity programs:
(2) 50→0% r.h. (5%/h); 5 h at 0% r.h.;
(3) 0→95% r.h. (5%/h); 5 h at 95% r.h.; and
The hygroscopicity was classified based on the mass gain at 85% r.h. relative to the initial mass as follows: deliquescent (sufficient water adsorbed to form a liquid), very hygroscopic (mass increase of ≧15%), hygroscopic (mass increase <15% and ≧2%), slightly hygroscopic (mass increase <2% and ≧0.2%), or non-hygroscopic (mass increase <0.2%).
During the DVS measurement (FIG. 4), the relative humidity was first lowered from 50% r.h. to 0% r.h., then raised from 0% r.h. to 95% r.h. and lowered back again to 50% r.h. […] Upon increasing the relative humidity to 95% r.h., a gradual mass gain of about 0.3 wt % (relative to the mass at 0% r.h.) was observed. […] The mass increase of 0.1 wt % at 85% r.h. (relative to the starting mass at 50% r.h.) classifies the sample as non-hygroscopic.

[5] = Stability study of Form B stored at about 40° C. and about 75% r.h. (HPLC, XRPD, IR); assay type: physicochemical; parameters: key to XRPD / IR: The term “complies” refers to substantially the same XRPD pattern and/or IR spectrum as the sample at the incept of the storage (time point=initial); conditions: for Concentration of compound 1 by HPLC Assay (anhydrous basis) / IR / XRPD: about 40° C., about 75% r.h.
Protocol: Standard solutions of the SP196-FD-P1 free drug of compound 1 and the L-malate salt of compound 1 (SP196-MLA-P4) were prepared in the concentration range of 0.2-0.05 mg/mL for the construction of a calibration curve.
Another sample of Form B was stored at about 40° C. and about 75% r.h. for a period of time (e.g., 6 months). The concentration of compound 1 in the sample was assayed using HPLC, XRPD, and IR at different time points. The term “complies” refers to substantially the same XRPD pattern and/or IR spectrum as the sample at the incept of the storage (time point=initial).

[6] = Stability study of Form B stored at about 25° C. and about 60% r.h. (HPLC, XRPD, IR); assay type: physicochemical; parameters: key to XRPD / IR: The term “complies” refers to substantially the same XRPD pattern and/or IR spectrum as the sample at the incept of the storage (time point=initial); conditions: for Concentration of compound 1 by HPLC Assay (anhydrous basis) / IR / XRPD: about 25° C., about 60% r.h.
Protocol: A sample of Form B was stored at about 25° C. and about 60% r.h. for a period of time (e.g., 24 months). The concentration of compound 1 in the sample was assayed using HPLC, XRPD, and IR at different time points. The term “complies” refers to substantially the same XRPD pattern and/or IR spectrum as the sample at the incept of the storage (time point=initial).

[7] = vacuum (<5 mbar) at 40° C. overnight or for 1 day

## CCn1cc(C(=O)N2CCOCC2)c(=O)c2cc(NC3Cc4ccccc4C3)cnc21 [Compound 1, 1-ethyl-6-(indan-2-ylamino)-3-(morpholine-4-carbonyl)-1,8-naphthyridin-4-one]
[1]
  sedative side effects: without sedative side effects

## CCn1cc(C(=O)N2CCOCC2)c(=O)c2cc(NC3Cc4ccccc4C3)cnc21 [Form B, 1-ethyl-6-(indan-2-ylamino)-3-(morpholine-4-carbonyl)-1,8-naphthyridin-4-one]
[2]
  stability upon drying: stable upon drying
[2]; dried sample, from 50° C. to 200° C.
  loss of H2O of the dried sample (TG-FTIR): about 1.9 wt %
[2]; [7]
  XRPD pattern of the dried sample compared to before drying: unchanged
  dehydration on drying: no dehydration and loss of solvent occurred
[3]
  relative stability of forms: more stable than an anhydrous form of compound 1
[4]
  hygroscopicity (in words): substantially non-hygroscopic
[4]; after DVS cycle 50→0→95→50% r.h.
  FT-Raman spectrum after the DVS measurement compared to before: unchanged
[4]; at 85% r.h., relative to the starting mass at 50% r.h.
  mass increase (DVS): 0.1 wt %
[4]; based on the mass gain at 85% r.h. relative to the initial mass
  hygroscopicity classification: non-hygroscopic (non-hygroscopic (mass increase <0.2%))
[4]; upon increasing the relative humidity to 95% r.h., relative to the mass at 0% r.h.
  mass gain (DVS): about 0.3 wt %
[4]; upon lowering the relative humidity from 50% r.h. to 0% r.h.
  mass loss (DVS): about 0.1 wt %
[4]; upon lowering the relative humidity from 95% r.h. to 50% r.h.
  final mass (DVS): equal to the starting mass
[5]; about 40° C. and about 75% r.h.
  stable upon storage, duration: at least 6 months
[5]; 1 month
  Concentration of compound 1 by HPLC Assay (anhydrous basis): 99.6% w/w
[5]; 2 months
  Concentration of compound 1 by HPLC Assay (anhydrous basis): 99.3% w/w
[5]; 3 months
  Concentration of compound 1 by HPLC Assay (anhydrous basis): 99.3% w/w
  IR: complies
  XRPD: complies
[5]; 6 months
  Concentration of compound 1 by HPLC Assay (anhydrous basis): 99.4% w/w
  IR: complies
  XRPD: complies
[5]; time point Initial
  Concentration of compound 1 by HPLC Assay (anhydrous basis): 99.5% w/w
[6]; about 25° C. and about 60% r.h.
  stable upon storage, duration: at least 24 months
[6]; 3 months
  Concentration of compound 1 by HPLC Assay (anhydrous basis): 99.4% w/w
  IR: complies
  XRPD: complies
[6]; 6 months
  Concentration of compound 1 by HPLC Assay (anhydrous basis): 99.6% w/w
  IR: complies
  XRPD: complies
[6]; 12 months
  Concentration of compound 1 by HPLC Assay (anhydrous basis): 99.3% w/w
  IR: complies
  XRPD: complies
[6]; 18 months
  Concentration of compound 1 by HPLC Assay (anhydrous basis): 99.4% w/w
  IR: complies
  XRPD: complies
[6]; 24 months
  Concentration of compound 1 by HPLC Assay (anhydrous basis): 99.2% w/w
  IR: complies
  XRPD: complies
[6]; time point Initial
  Concentration of compound 1 by HPLC Assay (anhydrous basis): 99.5% w/w

Source: US9758516B2, “Crystalline form of an anxiolytic compound” (Bionomics Limited, priority 2013, dated 2017)
